Measurements: PubChem BioAssay AID1996
Values after ≈ are worked out from the molar mass of the structure shown.

Details: buffer; pH 7.4; 200.0 µM

| solubility kinetic [µg/mL] | SMILES |
| --- | --- |
| > 56.3 | COc1ccc(NC(=O)CN2C(=O)C(=O)N(C3CCCC3)C2=O)c(OC)c1 |
| 32.4 (≈ 105 µM) | CCOc1cc(/C=C/c2nc3ccccc3c(=O)[nH]2)ccc1O |
| > 49.8 | COC(=O)C1CCN(S(=O)(=O)Cc2ccccc2Cl)CC1 |
| 2 (≈ 7.11 µM) | O=C1NC(=Nc2ccccc2)S/C1=C\c1cccnc1 |
| 29.1 (≈ 102 µM) | CCNC(=O)COc1ccc(OCc2ccccc2)cc1 |
| 39.7 (≈ 130 µM) | COc1ccc(CCNC(=O)C(=O)N2CCCC2)cc1OC |
| 32.5 (≈ 109 µM) | CCCCNC(=S)Nc1ccccc1Cc1ccccc1 |
| 0.7 (≈ 2.62 µM) | O=[N+]([O-])c1cccnc1Sc1ccc(Cl)cc1 |
| 0.4 (≈ 1.33 µM) | Cc1ccc(C)c(Cn2c(=O)n(C)c(=O)c3sccc32)c1 |
| > 56.3 | CC(C)(C)NC(=O)CN(C(=O)C(=O)Nc1ccc2c(c1)OCCO2)C1CC1 |
| 0.3 (≈ 0.869 µM) | CCc1noc(C)c1C(=O)Nc1nc(-c2ccc(F)cc2)c(C)s1 |
| 7.3 (≈ 27.3 µM) | CCOC(=O)c1c(-c2ccc(C)s2)csc1N |
| > 32.6 | Cl.NCCNc1ccc([N+](=O)[O-])cc1 |
| 1.1 (≈ 3.74 µM) | c1csc(-c2cc(N3CCCCC3)c3ccccc3n2)c1 |
| 48.2 (≈ 145 µM) | CC(C)[C@H](NC(N)=O)C(=O)NCCc1ccc(Cl)cc1Cl |
| 11 (≈ 32.1 µM) | COc1ccc(-c2nc3ccccc3nc2-c2ccccc2)cc1OC |
| 4.1 (≈ 13.1 µM) | CCn1c(=O)c(C(=O)CC#N)c(N)n(Cc2ccccc2)c1=O |
| > 49 | COc1ccc(C(=O)N2CCN(c3ccccc3OC)CC2)cc1 |
| 47.5 (≈ 134 µM) | O=C(CN1CCC(C(=O)O)CC1)Nc1ccccc1Oc1ccccc1 |
| 3.8 (≈ 13 µM) | Cc1ccc(NC(=O)CCCc2c[nH]c3ccccc23)nc1 |
| > 33.8 | Cc1nc(-c2cccs2)sc1C(=O)O |
| 0.9 (≈ 2.4 µM) | COC(=O)c1ccc(NC(=O)c2cccc(NC(=O)c3ccccc3)c2)cc1 |
| > 42.8 | Cc1[nH]c2ccccc2c1C(=O)C(C)OC(=O)C1CCC1 (stereo unspecified) |
| > 54.1 | CCOc1ccc(C(=O)NCC(c2cccs2)N2CCOCC2)cc1 (stereo unspecified) |

| solubility kinetic [µg/mL] | SMILES |
| --- | --- |
| 2.1 (≈ 7.96 µM) | S=C(Nc1ccccc1)Nc1ccc(Cl)cn1 |
| 7.3 (≈ 22.1 µM) | Cc1c(Cl)cccc1NC(=O)C1CCCN(S(C)(=O)=O)C1 (stereo unspecified) |
| > 59.8 | Cn1c(N)c(C(=O)CSc2nnc(C3CC3)n2-c2ccccc2)c(=O)[nH]c1=O |
| < 0.5 | Cc1cc(Cl)c2ccc3ccccc3c2n1 |
| > 45.7 | Cc1cccc(OCC(=O)NC2CC(C)(C)NC(C)(C)C2)c1 |
| 32.6 (≈ 110 µM) | Cc1ccc(-c2noc(CNC(=O)c3ccoc3C)n2)cc1 |
| 36.5 (≈ 149 µM) | O=C(Nc1ncccn1)c1ccc([N+](=O)[O-])cc1 |
| 7.8 (≈ 26.3 µM) | CCOc1ncccc1C(=O)Nc1nc(SC)ns1 |
| 52.9 | CSc1c(CN2CCN(C)CC2)c2ccccc2n1C.Cl |
| > 49.1 | Cc1ccc(C)c(NC(=S)N(CCc2ccncc2)C(C)C)c1 |
| > 45 | Cc1ccc(NC(=O)CSc2nncs2)cc1Cl |
| < 0.7 | Cc1ccc(C(C)C)c(OCCNC(=O)c2ccccc2O)c1 |
| 8.6 (≈ 24.7 µM) | O=C(NC1CCSc2ccccc21)c1ccccc1Br (stereo unspecified) |
| > 41.4 | O=C(CN1C(=O)COc2ccccc21)N1CCOCC1 |
| > 47.9 | O=C1CN(S(=O)(=O)c2cccc(Br)c2)CCN1 |
| 18.2 (≈ 49.2 µM) | O=C(COC(=O)c1ccccc1Br)Nc1cccnc1Cl |
| > 41.5 | C=CCN1CCN(C(=O)CSc2ccccc2)CC1 |
| 54.7 (≈ 130 µM) | O=C(NCCCN1CCCC1=O)c1ccccc1OCc1ccc(Cl)cc1Cl |
| > 33.9 | C=CCn1cnc2c(oc3ccccc32)c1=O |
| 26.8 (≈ 75.4 µM) | Cc1cc2nc3c(=O)[nH]c(=S)[nH]c3nc2cc1NC(=O)C(F)(F)F |
| > 37.2 | CC(C)c1ccc(C(=O)NN2CCOCC2)cc1 |
| > 45.8 | O=C(O)C1C2CCC(C2)C1C(=O)NCCc1ccc(F)cc1 (stereo unspecified) |
| 6.7 (≈ 28.7 µM) | CCCCc1ccc(NC(=O)C(C)CC)cc1 (stereo unspecified) |
| > 70.3 | Cc1c(NS(=O)(=O)c2cccc(C(=O)N3CCC(C)CC3)c2)c(=O)n(-c2ccccc2)n1C |

| solubility kinetic [µg/mL] | SMILES |
| --- | --- |
| 7.8 (≈ 25.7 µM) | CC(C)c1ccc(NC(=O)COC(=O)CC2CCCC2)cc1 |
| > 45.5 | Cc1cccc(C)c1N1CCN(C(=O)N2CCOCC2)CC1 |
| > 49.6 | Cc1cccc(NC(=O)CNC(=O)CSc2ncccn2)c1C |
| 23.4 (≈ 86.3 µM) | CC1Oc2ccccc2N(Cc2ccc(F)cc2)C1=O (stereo unspecified) |
| 0.6 (≈ 2.17 µM) | Cc1c(C=C2C(=O)c3ccccc3C2=O)cc(C#N)n1C |
| 8.6 (≈ 28.2 µM) | CCCc1cc(C(=O)Nc2cc(OC)ccc2OC)cs1 |
| > 50.6 | CCOC(=O)N1CCN(C(=O)CNC(=O)c2ccccc2F)CC1 |
| > 26.7 | C/C(=N\O)C(=O)Nc1ccccc1 |
| > 39.5 | COc1ccc(NC(=O)Nc2ccon2)cc1OC |
| > 45.3 | COC(=O)c1cccc(NC(=O)CCc2c(C)noc2C)c1 |
| 18.2 (≈ 69.5 µM) | N#Cc1cc(Cl)c(NCC2CCCO2)cc1C#N (stereo unspecified) |
| > 46.7 | O=S(=O)(Nc1cc(F)ccc1F)c1cccc2nonc12 |
| < 0.7 | COc1cccc2cc(C(C)OC(=O)Nc3ccc(C)cc3)oc12 (stereo unspecified) |
| < 0.4 | CCC(=O)c1cn(CC(=O)Nc2c(C)cccc2C)c2ccccc12 |
| 39 | Br.N=C1CCCN1CC(=O)c1cccs1 |
| 1.4 (≈ 3.51 µM) | O=C(NCC(=O)N1CCN(Cc2ccc3c(c2)OCO3)CC1)c1ccccc1F |
| 34 (≈ 105 µM) | CCOc1ccc(-c2ncncc2-c2ccccc2OC)c(O)c1 |
| 15.7 (≈ 38.2 µM) | COCc1ccc(C(=O)Nc2cccc(S(=O)(=O)N(C)c3ccccc3)c2)cc1 |
| 41.4 (≈ 129 µM) | COCCN1C(=O)CS/C1=C(/C#N)C(=O)NCc1ccco1 |
| 11.8 (≈ 36.8 µM) | Cc1ccc(/C=C/C(=O)OCC(=O)Nc2cccnc2Cl)o1 |
| 7.9 (≈ 22.9 µM) | CC(=O)Nc1ccc(NC(=O)c2cc([N+](=O)[O-])cc([N+](=O)[O-])c2)cc1 |
| > 52.6 | CC(CCc1ccccc1)NCC(O)c1cccc([N+](=O)[O-])c1.Cl (stereo unspecified) |
| 3.2 (≈ 8.22 µM) | O=C(COC(=O)c1cccc(N2C(=O)C3CC=CCC3C2=O)c1)c1ccccc1 (stereo unspecified) |
| > 51.4 | CCC(C(=O)O)n1cnc2scc(-c3ccc(C)c(C)c3)c2c1=O (stereo unspecified) |

| solubility kinetic [µg/mL] | SMILES |
| --- | --- |
| > 43.2 | CS(=O)(=O)Nc1ccc(-c2cn3cccnc3n2)cc1 |
| 43.9 (≈ 136 µM) | O=C(Nc1ccc(Cl)c(Cl)c1)NC1CCS(=O)(=O)C1 (stereo unspecified) |
| 2.3 (≈ 8.34 µM) | O=C(NCCc1ccccc1)Oc1ccc(Cl)cc1 |
| > 41.4 | CCOc1ccccc1OCC(=O)Nc1cc(C)on1 |
| > 42.5 | COc1ccc(OCCn2c(N)nc3ccccc32)cc1 |
| 38 (≈ 150 µM) | Cc1ccc(/C=C2/C(=O)ON=C2c2ccccc2)o1 |
| > 51.7 | O=C(CSc1nc2ccccc2s1)Nc1ccc(C(=O)O)cc1 |
| 6.3 (≈ 11.9 µM) | COc1cc(C(=O)NCC(c2cccs2)N2CCOCC2)cc(Br)c1OCc1ccccc1 (stereo unspecified) |
| 19.4 (≈ 60.7 µM) | C=CCN(c1nc(C)cc(OC)n1)S(=O)(=O)c1ccccc1 |
| > 48.4 | O=S(=O)(NCCN1CCCC1)c1ccc(C(F)(F)F)cc1 |
| > 47 | O=S(=O)(Nc1ccc2c(c1)OCO2)c1ccc(F)c(F)c1 |
| 0.5 (≈ 1.62 µM) | COc1ccccc1C(=O)Nc1cc(-c2ccc(C)cc2)no1 |
| > 36 | O=C1Nc2ccccc2C1=Nc1ccc(F)cc1 |
| 11.5 (≈ 41.6 µM) | COc1cccc(C2Nc3cccc4cccc(c34)N2)c1 |
| > 44.6 | O=C(O)c1ccc(S(=O)(=O)NCC2CCCCC2)cc1 |
| 1.1 (≈ 3.09 µM) | CCc1cc2c3c(c1)C(C)CC(C)(C)N3C(=O)/C2=C1\SC(=O)NC1=O (stereo unspecified) |
| > 49.1 | N#Cc1cc([N+](=O)[O-])ccc1NC(=O)COC(=O)c1cnccn1 |
| 3.3 (≈ 10.4 µM) | O=S(=O)(Nc1ccc2ccccc2n1)c1ccccc1Cl |
| 0.7 (≈ 2.6 µM) | CC(C)n1cc(/C=C2/NC(=O)NC2=O)c2ccccc21 |
| 1.3 (≈ 3.67 µM) | O=S(=O)(c1ccccc1)c1nc(-c2ccccc2)oc1N1CCCC1 |
| 5.2 (≈ 17.4 µM) | Cc1cccc(NC(=O)CN2CCSc3ccccc32)c1 |
| < 0.2 | Cc1cc(C)c(C#N)c(Nc2cccc(Br)c2)n1 |
| 5.4 (≈ 14.7 µM) | COc1ccc2c(CC(=O)Nc3ccc(N4CCOCC4)cc3)coc2c1 |
| > 42.5 | O=C(CCc1ccccc1)NCc1ccc2c(c1)OCO2 |

| solubility kinetic [µg/mL] | SMILES |
| --- | --- |
| 10.5 (≈ 30.3 µM) | Nc1cc(C(=O)OCC(=O)NCCCc2ccccc2)ccc1Cl |
| > 52 | CC(CC(=O)NCCc1ccc(S(N)(=O)=O)cc1)c1ccccc1 (stereo unspecified) |
| 38.3 (≈ 147 µM) | NC(=O)c1ccccc1NC(=O)Cc1cccs1 |
| 2.9 (≈ 10.8 µM) | Cc1nc2ccc(OC(=O)c3ccccc3)cc2s1 |
| 1.2 (≈ 3.61 µM) | Cc1nc(COc2ccccc2Cl)sc1-c1ccnc(N)n1 |
| 26.9 (≈ 103 µM) | COc1ccc(C(=O)Nc2cc(C)on2)cc1OC |
| > 40.3 | O=C(COC(=O)C1CCC1)Nc1ccc(Cl)cn1 |
| 36.2 (≈ 140 µM) | Fc1cccc(Nc2nc(Cl)nc(Cl)n2)c1 |
| 44.4 (≈ 113 µM) | COc1ccc(NC(=O)Cc2cccs2)cc1S(=O)(=O)N1CCCCC1 |
| > 41.1 | Cc1ccc2c(c1)N(CC(=O)N1CCCC1)C(=O)CO2 |
| 2.9 (≈ 9.43 µM) | Cc1ccc(CC2CC(=O)N(CCc3ccccc3)C2=O)cc1 (stereo unspecified) |
| > 43.4 | Cc1ccc(NC(=O)C2C3CCC(O3)C2C(=O)O)cc1C (stereo unspecified) |
| > 27.5 | C=CCSc1nc(N)cc(=O)[nH]1 |
| 1.8 (≈ 5.5 µM) | CC(CCc1ccccc1)NC(=O)COC(=O)c1ccccc1O (stereo unspecified) |
| > 30.8 | CCOC(=O)c1cncc(C#CCO)c1 |
| 31 (≈ 144 µM) | CCCN(C(=O)CCl)C1=CCCCC1 |
| 10.4 (≈ 22.4 µM) | CC(=O)c1ccc(N(CC(=O)NC2CCS(=O)(=O)C2)S(=O)(=O)c2ccc(C)cc2)cc1 (stereo unspecified) |
| 0.2 (≈ 0.609 µM) | COc1ccc(Cl)cc1NC(=S)Nc1ccc(Cl)cn1 |
| > 38.3 | Cc1ccc(NC(=O)NCc2ccccn2)c(C)c1 |
| > 44.8 | Cc1[nH]nc(SCC(=O)N2CCCCCC2)c1[N+](=O)[O-] |
| 8.5 (≈ 23.9 µM) | Cc1ccccc1NC(=O)NC1(C(=O)NCc2ccco2)CCCCC1 |
| > 50.2 | Cc1onc(-c2ccccc2)c1C(=O)N(Cc1ccccc1)C(C)C |
| > 33.2 | Nc1cccc(-c2cnc3ccccc3n2)c1 |

| SMILES | solubility kinetic [µg/mL] |
| --- | --- |
| CC(C)CN1CCN(Cc2cccc3c2OCO3)CC1CCO (stereo unspecified) | > 48.1 |
| CSc1nc2ccc(C)cc2c(=O)n1-c1cccnc1 | 8.1 (≈ 28.6 µM) |
